Measured values as given in patent publication US8574590B2 (Integral Molecular, Inc., priority 2003, dated 2013).
Like-named read-outs stand apart in the source and are kept apart here.

Columns and labels:
Kv1.3 = Kv1.3 (Homo sapiens, UniProt P22001); details: cited from earlier work
Shaker = Shaker (Drosophila melanogaster, UniProt P08510); details: cited from earlier work
Ca-activated K-channels = details: cited from earlier work
[1] = read-out: Kd for Ca^++; cited from earlier work
[2] = tested on: Gag/luciferase-lipoparticles; assay: Melittin poration of Gag/luciferase-lipoparticles (luciferase luminescence); type: biochemical; details: melittin 0.3 to 105 uM, 30 minutes
Experimental: FIG. 24. […] Lipoparticles were constructed to contain a luciferase enzyme inside the lipoparticle. […] To insure the integrity of the luciferase, after each addition of melittin, the same sample was lysed with Triton X-100 (circles) and again measured.
Lipoparticles containing a Gag-luciferase fusion protein were prepared as described herein. Melittin, ranging from 0.3 to 105 uM in final concentration, was added to solutions of Gag/luciferase-lipoparticles (MOPS pH 6.5 buffer), mixed, and incubated for 30 minutes. A 5 μl aliquot of the Lipoparticle solution was then transferred to a 96-well plate containing 50 μl of Luciferase assay reagent (Promega Steady Glo Luciferase Assay System) which contains the necessary reagents for enzymatic activity, including luciferin, ATP, and Mg^2+. Luminescence was measured for 1 second integrations in a Wallac Victor2V. […] Triton X-100 was used to lyse luciferase-lipoparticles as a positive control.

K-channels = details: cited from earlier work
[3] = depending on the ionic composition of the membrane; cited from earlier work

Shaker, sequence (P08510 whole entry): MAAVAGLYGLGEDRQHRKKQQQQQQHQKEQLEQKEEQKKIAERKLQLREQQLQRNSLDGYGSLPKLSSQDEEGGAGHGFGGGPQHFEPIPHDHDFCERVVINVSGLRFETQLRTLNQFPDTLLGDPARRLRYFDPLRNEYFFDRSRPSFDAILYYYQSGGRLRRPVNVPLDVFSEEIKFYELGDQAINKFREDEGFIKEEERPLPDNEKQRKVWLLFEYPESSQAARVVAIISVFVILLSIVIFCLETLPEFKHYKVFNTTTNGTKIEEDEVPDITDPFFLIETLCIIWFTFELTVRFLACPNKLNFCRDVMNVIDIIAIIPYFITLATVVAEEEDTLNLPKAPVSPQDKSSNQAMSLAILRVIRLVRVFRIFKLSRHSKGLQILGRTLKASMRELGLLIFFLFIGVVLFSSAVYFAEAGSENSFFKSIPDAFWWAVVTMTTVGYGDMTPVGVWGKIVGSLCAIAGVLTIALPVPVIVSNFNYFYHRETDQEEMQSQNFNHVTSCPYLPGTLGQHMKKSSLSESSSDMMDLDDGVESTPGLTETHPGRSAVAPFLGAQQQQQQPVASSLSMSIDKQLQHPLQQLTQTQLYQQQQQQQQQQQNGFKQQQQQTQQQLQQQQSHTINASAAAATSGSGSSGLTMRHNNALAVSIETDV
Kv1.3, sequence (P22001 whole entry): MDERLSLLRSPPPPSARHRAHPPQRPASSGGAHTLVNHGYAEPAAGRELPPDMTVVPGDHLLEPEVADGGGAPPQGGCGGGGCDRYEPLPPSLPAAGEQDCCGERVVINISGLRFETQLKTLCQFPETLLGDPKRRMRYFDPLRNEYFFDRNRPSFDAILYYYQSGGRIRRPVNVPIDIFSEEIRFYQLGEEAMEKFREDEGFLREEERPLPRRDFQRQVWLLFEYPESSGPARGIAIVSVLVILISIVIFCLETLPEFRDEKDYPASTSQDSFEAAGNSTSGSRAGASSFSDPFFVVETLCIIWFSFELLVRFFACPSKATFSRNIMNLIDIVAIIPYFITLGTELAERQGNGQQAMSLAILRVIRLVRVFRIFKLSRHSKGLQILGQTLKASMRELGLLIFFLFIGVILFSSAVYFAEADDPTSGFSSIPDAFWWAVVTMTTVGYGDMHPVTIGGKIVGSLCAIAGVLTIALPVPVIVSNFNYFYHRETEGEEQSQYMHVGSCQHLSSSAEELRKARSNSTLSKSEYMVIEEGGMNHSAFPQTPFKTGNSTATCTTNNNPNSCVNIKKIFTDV

## Agitoxin-2: toxin, inhibitor of K-channels
Kv1.3
  Blocking of Kv1.3: Blocks Kv1.3 and Shaker
Shaker
  Blocking of Shaker: Blocks Kv1.3 and Shaker

## Iberiotoxin: toxin, inhibitor of K-channels (QFTDVDCSVSKECWSVCKDLFGVDRGKCMGKKCRCYQ; UniProt P24663 1-37, looked up)
Kv1.3
  Blocking of Kv1.3: not Kv1.3
Shaker
  Blocking of Shaker: not
Ca-activated K-channels
  Blocking of Ca-activated K-channels: Blocks

## Cc1ccc(N(CC(=O)O)CC(=O)O)c(OCCOc2cc3cc(-c4ncc(C(=O)O)o4)oc3cc2N(CC(=O)O)CC(=O)O)c1 [Fura-2]
[1]
  Kd: 0.14 µM

## CC[C@H](C)[C@H](NC(=O)CN)C(=O)NCC(=O)N[C@@H](C)C(=O)N[C@H](C(=O)N[C@@H](CC(C)C)C(=O)N[C@@H](CCCCN)C(=O)N[C@H](C(=O)N[C@@H](CC(C)C)C(=O)N[C@H](C(=O)N[C@H](C(=O)NCC(=O)N[C@@H](CC(C)C)C(=O)N1CCC[C@H]1C(=O)N[C@@H](C)C(=O)N[C@@H](CC(C)C)C(=O)N[C@H](C(=O)N[C@@H](CO)C(=O)N[C@@H](Cc1c[nH]c2ccccc12)C(=O)N[C@H](C(=O)N[C@@H](CCCCN)C(=O)N[C@@H](CCCNC(=N)N)C(=O)N[C@@H](CCCCN)C(=O)N[C@@H](CCCNC(=N)N)C(=O)N[C@@H](CCC(N)=O)C(=O)N[C@@H](CCC(N)=O)C(N)=O)[C@@H](C)CC)[C@@H](C)CC)[C@@H](C)O)[C@@H](C)O)C(C)C)C(C)C [Melittin]
[2]
  permeabilization of lipoparticles (luciferase signal): increase of the luminescent signal
[2]; listed as melittin
  permeabilization of lipoparticles (luciferase signal): the lipoparticles were permeabilized

## Alpha-Dendrotoxin
Kv1.3
  Blocking of Kv1.3: Blocks Kv1.3 and Shaker
Shaker
  Blocking of Shaker: Blocks Kv1.3 and Shaker
K-channels; high ionic strength
  binding under high ionic strength conditions: Binds very weakly under high ionic strength
K-channels; low ionic strength
  binding under low ionic strength conditions: Binds strongly under low ionic strength conditions

## CCCCCCCCCCCCCCCCCc1cc(=O)oc2cc(O)ccc12 [4-heptadecyl-7-hydroxycoumarin]
[3]
  pKa range: 6.35-11.15

## Margatoxin
Kv1.3
  Blocking of Kv1.3: Blocks
Shaker
  Blocking of Shaker: not Shaker

## Charybdotoxin
Kv1.3
  Blocking of Kv1.3: Blocks Kv1.3 and Shaker
Kv1.3; listed as CHTX
  Blocking of Kv1.3: highly specific, potent, and impermeant blocker
Shaker
  Blocking of Shaker: Blocks Kv1.3 and Shaker
Shaker; listed as CHTX
  Blocking of Shaker: highly specific, potent, and impermeant blocker
K-channels
  effect of Ca on binding: Ca inhibits binding
K-channels; low ionic strength, high pH (8.5)
  binding at low ionic strength, high pH (8.5): Low ionic strength, high pH (8.5) enhances binding
